Data on one compound can be found in US11045473B2, “Compositions and methods for therapy of prostate cancer using drug combinations to target polyamine biosynthesis and related pathways” (Health Research, Inc., priority 2015, dated 2021).

Assay [1] has as its system MTAP. In words: Western blot of MTAP protein expression in LNCaP. Type of assay: cell-based, human. To be noted: 4 day IC25 and IC50 of MTDIA, presence or absence of MTA. As for the experimental part: (§1) FIG. 9. (A) Proliferation curves for LNCaP, DU145 and PC3 treated with MTDIA in the absence or presence of 10 or 20 uM MTA, for 4 and (B) 8 days. […] (C) Western blot analysis of FaDu, LNCaP, and DU145 cells after indicated treatments of MTA (0, 10, or 20 uM) or the respective 4 day IC25 and IC50 dose of MTDIA for each cell line plus or minus MTA immunoblotted with antibodies against MTAP, SMS, and SRM, with B-actin as a loading control. Western blot images are representative of biological triplicates.
(§2) Western Blotting—Whole cell extracts were prepared in RIPA buffer (150 mM NaCl, 1.0% NP-40, 0.5% deoxycholate, 0.1% SDS, 50 mM Tris-HCl pH 8.0, 5 mM EDTA and 0.5 mM PMSF) supplemented with 1× proteinase inhibitor. Protein concentrations were determined by Bradford Assay (Thermo Scientific, Cat #1856209). […] MTAP for Westerns was purchased from Proteintech™ (Cat #11475-1-AP. SRM and SMS were purchased from Abcam® (Cat #ab111884 and ab156879). B-actin antibody for Westerns was purchased from Sigma-Aldrich (Cat #A5441) and GAPDH was from Santa Cruz Biotecnology Inc. (Cat #sc-25778). Films were scanned using the Biorad ChemiDoc XRS, and band intensities were calculated using Image Lab™. Intensity values were normalized to B-actin loading control band intensities and made relative to control treatment conditions.
Background: In western blotting, separated proteins are transferred to a membrane and probed.

The subject of assay [2] is head and neck squamous carcinoma cell lines. To be noted: 12 day treatment, 20 uM MTA added to the media; cited from earlier work.
Assay [3] relates to spermine synthase. In words: Western blot of spermine synthase in FaDu. The class given is cell-based, human. The conditions noted are these: treatment with MTDIA. The method, then: (§3) FIG. 9. (A) Proliferation curves for LNCaP, DU145 and PC3 treated with MTDIA in the absence or presence of 10 or 20 uM MTA, for 4 and (B) 8 days. Results of biological triplicates are shown with absolute IC50s indicated for each condition. (C) Western blot analysis of FaDu, LNCaP, and DU145 cells after indicated treatments of MTA (0, 10, or 20 uM) or the respective 4 day IC25 and IC50 dose of MTDIA for each cell line plus or minus MTA immunoblotted with antibodies against MTAP, SMS, and SRM, with B-actin as a loading control. Western blot images are representative of biological triplicates. Band intensity values normalized to B-actin relative to control conditions are indicated below the respective band.
(§4) Western Blotting—Whole cell extracts were prepared in RIPA buffer (150 mM NaCl, 1.0% NP-40, 0.5% deoxycholate, 0.1% SDS, 50 mM Tris-HCl pH 8.0, 5 mM EDTA and 0.5 mM PMSF) supplemented with 1× proteinase inhibitor. Protein concentrations were determined by Bradford Assay (Thermo Scientific, Cat #1856209). Samples were resolved on polyacrylamide gels and transferred onto PVDF membranes (Biorad, Cat #162-0177). Blots were incubated with primary antibodies overnight at 4° and with secondaries for 1.5 hours at room temperature. Signals were visualized using Pierce ECL western blotting substrate (Thermo Scientific, Cat #32209) and exposed to film. […]

Assay [4] deals with spermine synthase. The experiment in a line: Western blot of spermine synthase in LNCaP. Type of assay: cell-based, human. The conditions noted are these: treatment with MTDIA. As for the experimental part:
as §3, §4

Assay [5] deals with lung adenocarcinoma cell lines. To be noted: 6 day treatment, 20 uM MTA added to the media; cited from earlier work.
The subject of assay [6] is LNCaP xenograft. The experiment in a line: LNCaP xenograft growth in nude mice, MTDIA in the drinking water. Type of assay: in vivo. As for the experimental part:
Human cell line xenografts with pharmacological treatment—1×10^6 wild type LNCaP cells were subcutaneously injected onto the flank of pelleted nude mice. At time of injection animals were randomly assigned to one of the following three groups; control, 9 or 21 mg/kg MTDIA in the drinking water with 20 mice in each group. Tumor measurements were assessed and recorded twice a week. Animals were sacrificed once tumors reached 2 cm3 or at the end point of the experiment (91 days).

In assay [7] the test system is DU145. The experiment in a line: Proliferation / IC50 by trypan blue cell counts, DU145. The class given is cell-based, human. To be noted: for effect on cell growth: 8 and 12 days; for IC50: Homo sapiens. As for the experimental part: A transition state analog inhibitor of MTAP, Methylthio-DaDMe-Immucillin-A (MTDIA) was previously described and shown to be effective following a 6 or 12 day treatment at ˜10 and 100 nM MTDIA when 20 uM MTA was added to the media in both lung adenocarcinoma cell lines and head and neck squamous carcinoma cell lines, respectively [Basu I, et al. J Biol Chem. 2007; 282:21477-21486; Basu I, et al. J Biol Chem. 2011; 286:4902-491]. 32]. We synthesized MTDIA and the analytical data on the synthesized compound are shown in FIGS. 8A and 8B with the scheme used for synthesis shown in FIG. 6. […] In all three cell lines, the proliferation curves after 12 days of treatment show an IC50 of MTDIA>1 mM in the absence of MTA (FIG. 5B), but in the 10-100 nM range with the addition of 10 or 20 μM MTA. […] Nanomolar range IC50 values are highlighted.
IC50—The MTAP inhibitor (3R,4S)-1-[(9-Deaza-adenin-9-yl)methyl]-3-hydroxy-4-(methylthiomethyl)-pyrrolidine, or MT-DADMe-Immucillin-A (MTDIA) was synthesized following the synthesis scheme shown in FIG. 6 and based on a known approach. Cells were seeded at 125,000 cells/well (PC-3, DU145, LNCaP) in triplicate in 2 mLs of RPMI medium supplemented with 10% fetal bovine serum, and 1% penicillin streptomycin. After 24 hours the MTDIA and/or MTA was added at the indicated concentrations. Both medium and drug were refreshed every 48 hours. Every 96 hours the cells were trypsinized, ˜2% of cells were removed and counted by trypan blue exclusion and the rest were replated into a larger vessel.

The test system of assay [8] is FaDu cells. The experiment in a line: IC50 of MTDIA for FaDu cells. The conditions noted are these: Homo sapiens, 144 h, 6 day treatment, 20 uM MTA. The class given is cell-based.
For assay [9], the system named is MTAP. In words: Western blot of MTAP protein expression in FaDu. The class given is cell-based, human. The conditions noted are these: 4 day IC25 and IC50 of MTDIA, presence or absence of MTA. As for the experimental part:
as §1, §2

Entries after “also recorded” stand apart in the source; their conditions may differ. A value given as a limit tells only on which side of the number the result lay.

On to `CSC[C@H]1CN(Cc2c[nH]c3c(N)ncnc23)C[C@@H]1O` [MTDIA, (3R,4S)-1-[(9-Deaza-adenin-9-yl)methyl]-3-hydroxy-4-(methylthiomethyl)-pyrrolidine], for which the MTAP expression entry in assay [1] is recorded as “upregulate expression of MTAP”; in [9], “downregulates MTAP”. In addition, the effective concentration in [2] is recorded as approximately 100 nM; in assay [5] it was approximately 10 nM. The spermine synthase expression entry in assay [3] is given as “downregulated”; in assay [4], “upregulated”. Besides, the xenograft growth result in [6] (21 mg/kg MTDIA daily in the drinking water, vs untreated control and 9 mg/kg dose) was “significant (p<0.001) block in xenograft growth; also recorded: dramatically blocked LNCaP xenograft growth”. The “xenograft growth after drug removal” value in [6] (21 mg/kg group, drug removed at day 61, carried out to day 91) is reported as “significant block in xenograft growth was maintained”. Moreover, the “effect on cell growth” value in [7] (DU145, 100 nM MTDIA, with 20 μM MTA) is on record as “dramatic effect on cell growth”; in assay [7] (DU145, 100 nM MTDIA, without MTA), “little to no effect”. Further, in [7] (DU145, 100 nM MTDIA, 4 days, with or without 20 μM MTA), the effect on growth entry is “limited effects on growth”. Moreover, in assay [7] (DU145, 6 days, low concentrations of MTDIA), the blocking cell growth entry is “no effect at blocking cell growth”. For the same compound, the IC50 in assay [7] (DU-145, 96 h, DU145, 4 days, 0 μM MTA) is more than 1000 µM; in [7] (DU-145, 96 h, DU145, 4 days, 10 μM MTA), more than 1000 µM; in [7] (DU-145, 96 h, DU145, 4 days, 20 μM MTA), more than 1000 µM; in assay [7] (DU-145, 192 h, DU145, 8 days, 0 μM MTA), more than 1000 µM; in assay [7] (DU-145, 192 h, DU145, 8 days, 10 μM MTA) it was 0.022 µM; in assay [7] (DU-145, 192 h, DU145, 8 days, 20 μM MTA), 590 µM. Moreover, the IC50 in assay [7] (DU-145, 288 h, DU145, 12 days, 0 μM MTA) is more than 1000 µM; in assay [7] (DU-145, 288 h, DU145, 12 days, 10 μM MTA) it was 0.014 µM; in assay [7] (DU-145, 288 h, DU145, 12 days, 20 μM MTA) it was 0.01 µM; in assay [7] (DU-145, 288 h, DU145, 12 days, with 10 or 20 μM MTA), 0.01 to 0.1 µM; in assay [8], approximately 0.05 µM.

The term IC50 denotes the concentration that inhibits the measured activity by half.
